Source: the supplement of paper PMC10307832

Key:
Assay in all cases: relative viability (nuclei count vs DMSO), 5 days (fraction); higher = more cells survive
[1] = compound: CC1=CC(=CC=C1)NC2=NC(=CS2)C3=CC=NC=C3 + O=C(c1cc(Cc2n[nH]c(=O)c3ccccc23)ccc1F)N1CCN(C(=O)C2CC2)CC1 [Olaparib] (partner 8 µM)
Summary of the method: (§1)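 For relative viability, nuclei counts in treated wells were divided by those in vehicle wells. Lung cancer cell lines had been pin-tool dosed in 1536-well plates the day after seeding and cultured for 5 days, then fixed and stained in one step (final 0.05% Triton X-100, 1% formaldehyde, 1 ug/ml Hoechst) and imaged at 4×. Doses were one drug alone or a fixed anchor-drug dose plus five library-drug doses (not always all listed) in √10 steps, and values are duplicate-plate medians.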

[2] = compound: CC1=CC(=CC=C1)NC2=NC(=CS2)C3=CC=NC=C3 + CC(C)C[C@H](NC(=O)[C@H](Cc1ccccc1)NC(=O)c1cnccn1)B(O)O [Bortezomib] (partner 0.002 µM)
Summary of the method: as §1

[3] = compound: CC1=CC(=CC=C1)NC2=NC(=CS2)C3=CC=NC=C3 + CS(=O)(=O)N1CCN(Cc2cc3nc(-c4cccc5[nH]ncc45)nc(N4CCOCC4)c3s2)CC1 [Pictilisib] (partner 1 µM)
Summary of the method: as §1

Masitinib + Dasatinib = compound: Cc1ccc(NC(=O)c2ccc(CN3CCN(C)CC3)cc2)cc1Nc1nc(-c2cccnc2)cs1 [Masitinib] + Cc1nc(Nc2ncc(C(=O)Nc3c(C)cccc3Cl)s2)cc(N2CCN(CCO)CC2)n1 [Dasatinib] (partner 0.075 µM)
Summary of the method: as §1

Cell Line	relative viability ([1]; first compound 0.08 µM)	relative viability ([1]; first compound 0.253 µM)	relative viability ([1]; first compound 0.8 µM)	relative viability ([1]; first compound 2.53 µM)	relative viability ([1]; first compound 8 µM)	relative viability ([2]; first compound 0.08 µM)	relative viability ([2]; first compound 0.253 µM)	relative viability ([2]; first compound 0.8 µM)	relative viability ([2]; first compound 2.53 µM)	relative viability ([2]; first compound 8 µM)	relative viability ([3]; first compound 0.08 µM)	relative viability ([3]; first compound 0.253 µM)	relative viability ([3]; first compound 0.8 µM)	relative viability ([3]; first compound 2.53 µM)	relative viability ([3]; first compound 8 µM)	relative viability (Masitinib + Dasatinib; first compound 0.01 µM)	relative viability (Masitinib + Dasatinib; first compound 0.03162 µM)	relative viability (Masitinib + Dasatinib; first compound 0.1 µM)	relative viability (Masitinib + Dasatinib; first compound 0.3162 µM)	relative viability (Masitinib + Dasatinib; first compound 1 µM)
LOU-NH91	0.8	0.862	0.889	0.887	0.855	0.446	0.457	0.447	0.461	0.398	0.482	0.382	0.464	0.44	0.468	0.557	0.511	0.54	0.442	0.546
LU99A	0.233	0.262	0.275	0.27	0.237		1.09	1.15	1.06	1.05		0.309	0.306	0.368	0.326	0.583	0.619	0.557	0.503	0.503
LXF-289	1.02	0.994	1.04	1.05	0.927	0.952	0.959	0.988	0.978	0.823	0.714	0.75	0.733	0.715	0.74	0.223	0.206	0.238	0.202	0.207
NCI-H23	0.226	0.228	0.22	0.221	0.235	1.17	1.08	1.29	0.866	0.739	0.33	0.482	0.555	0.434	0.462	0.713	0.69	0.786	0.859	0.805
NCI-H322M	0.687	0.76	0.725	0.613	0.575	1.18	1.29	1.14	1.22	1.03	0.446	0.452	0.372	0.495	0.622	0.259	0.286	0.236	0.236	0.253
NCI-H441	0.564	0.52	0.571	0.688	0.521	0.423	0.361	0.427	0.53	0.136	0.44	0.529	0.476	0.489	0.543	0.846	0.623	0.723	0.659	0.511
NCI-H460	0.368	0.344	0.355	0.278	0.263	1.03	1.13	0.945	0.902	0.843	0.311	0.257	0.337	0.354	0.336	0.392	0.447	0.561	0.344	0.485
NCI-H520	0.384	0.325	0.391	0.314	0.288	0.586	0.505	0.56	0.786	0.235	0.281	0.346	0.301	0.278	0.299	0.245	0.225	0.247	0.292	0.215
NCI-H596	0.674	0.546	0.673	0.6	0.613	0.845	1.08	0.893	0.853	0.74	0.347	0.378	0.34	0.402	0.264	0.594	0.566	0.675	0.667	0.615
NCI-H647	0.477	0.528	0.55	0.523	0.305	0.826	0.92	0.965	0.836	0.621		0.289	0.388	0.317	0.231	0.181	0.208	0.186	0.171	0.155
NCI-H650	0.338	0.348	0.392	0.368	0.367	0.76	0.72	1.09		0.857	0.771	0.863	0.893		0.822	0.516	0.429	0.482	0.313	0.415
NCI-H661	0.736	0.803	0.769	0.75	0.642	0.864	0.862	0.759	0.653	0.706	0.447	0.47	0.407	0.397	0.489	0.883	1.03	1.04	0.795	0.658
NCI-H727	0.67		0.679		0.743	0.547	0.774	0.834	0.549	0.446	0.26	0.287	0.313	0.343	0.375	0.332	0.315	0.346	0.383	0.35
NCI-H838	0.567	0.545	0.714	0.685	0.521	0.658	0.742	0.934	0.861	0.651	0.382	0.334	0.4	0.288	0.289	0.304	0.258	0.344	0.266	0.229
NCI-H1355	0.579	0.531	0.444	0.385	0.407	1.08	1.02	0.991	0.465	0.716	0.268	0.315	0.348	0.292	0.327	0.69	0.485	0.701	0.436	0.69
NCI-H1437	0.628	0.585	0.525	0.478	0.371	0.473	0.523	0.566	0.437	0.355	0.53	0.613	0.689	0.294	0.285	0.457	0.396	0.454	0.527	0.387
NCI-H1650	0.539	0.901	0.525	0.488	0.432	0.194	0.193	0.213	0.213	0.191	0.536	0.517	0.621	0.419	0.208	0.366	0.32	0.348	0.276	0.27

Cell Line	relative viability ([1]; first compound 0.08 µM)	relative viability ([1]; first compound 0.253 µM)	relative viability ([1]; first compound 0.8 µM)	relative viability ([1]; first compound 2.53 µM)	relative viability ([1]; first compound 8 µM)	relative viability ([2]; first compound 0.08 µM)	relative viability ([2]; first compound 0.253 µM)	relative viability ([2]; first compound 0.8 µM)	relative viability ([2]; first compound 2.53 µM)	relative viability ([2]; first compound 8 µM)	relative viability ([3]; first compound 0.08 µM)	relative viability ([3]; first compound 0.253 µM)	relative viability ([3]; first compound 0.8 µM)	relative viability ([3]; first compound 2.53 µM)	relative viability ([3]; first compound 8 µM)	relative viability (Masitinib + Dasatinib; first compound 0.01 µM)	relative viability (Masitinib + Dasatinib; first compound 0.03162 µM)	relative viability (Masitinib + Dasatinib; first compound 0.1 µM)	relative viability (Masitinib + Dasatinib; first compound 0.3162 µM)	relative viability (Masitinib + Dasatinib; first compound 1 µM)
NCI-H1651	0.185	0.179	0.166	0.177	0.186	0.939	0.923	0.933	0.822	0.987	0.476	0.651	0.749	0.465	0.588	0.403	0.469	0.443	0.383	0.419
NCI-H1666	0.677	0.771	0.737	0.766	0.824	0.503	0.553	0.41	0.388	0.409	0.326	0.358	0.351	0.329	0.3		0.713	0.858	0.818	0.817
NCI-H1734	0.552	0.584	0.57	0.63	0.539	0.906	0.874	0.941	0.919	0.36	0.479	0.499	0.494	0.588	0.43	0.449	0.521	0.508	0.518	0.416
NCI-H1755	0.796	0.829	0.769	0.598	0.533	0.937	0.886	0.832	0.819	0.572	0.339	0.401	0.338	0.344	0.367		0.455	0.451	0.422	0.383
NCI-H1792	0.312	0.307	0.248	0.255	0.32	0.954	0.75	0.784	0.81	0.898	0.155	0.198	0.219	0.162	0.24	0.757	0.342	0.83	0.718	1.32
NCI-H1915	0.271	0.263	0.25	0.243	0.23	0.976	0.973	0.944	0.846	0.762	0.834	0.853	0.888	0.759	0.92		0.214		0.319	0.276
NCI-H1975	0.747	0.442	0.458	0.395	0.235	0.361	0.352	0.374	0.267	0.171	0.229	0.216	0.188	0.199	0.191	0.427	0.403	0.427		0.279
NCI-H1993	0.945	1.01	0.923	1.11	0.898	1	1.03	0.885	0.894	0.993	0.804	0.907	0.788	0.822	0.779	0.554	0.508	0.577	0.532	0.52
NCI-H2009	0.629	0.644	0.717	0.677	0.63	0.829	0.894	1.04	1	0.724	0.724	0.837	0.692	0.856	0.957	0.291	0.284	0.324	0.283	0.244
NCI-H2023	0.42	0.543	0.38	0.388	0.286	0.899	0.873	0.959	0.949	0.543	0.161	0.177	0.215	0.175	0.18	0.551	0.602	0.543	0.395	0.513
NCI-H2085	0.844	0.784	0.757	0.769	0.587	1.02	1.07	1.06	0.94	0.574	0.5	0.434	0.453	0.426	0.447	0.215	0.249	0.242	0.278	0.215
NCI-H2087	0.596	0.503	0.607	0.448	0.462	0.708	0.825	0.844	0.666	0.3	0.616	0.812	0.851	0.885	0.77	0.922	0.927	1.01	0.775	0.788
NCI-H2126	0.894	0.898	0.869	0.88	0.887	1.06	1.04	1.16	0.989	0.91	0.416	0.443	0.449	0.425	0.436	0.681	0.537	0.653	0.369	0.525
NCI-H2228	0.396	0.324	0.525	0.559	0.415	0.892	0.761	0.771	0.925	0.714	0.413	0.431	0.281	0.453	0.359	0.544	0.461	0.729	0.523	0.425
NCI-H2347	0.47	0.536	0.538	0.568	0.48	0.748	0.74	0.847	0.804	0.57	0.583	0.685	0.434	0.665	0.578	0.325	0.293	0.274	0.279	0.262
NCI-H2405	0.751	0.75	0.677		0.723	0.929	0.87	0.87	0.774	0.903	0.315	0.433	0.332	0.523	0.342	0.2	0.214	0.213	0.238	0.193
